Patent publication US7407775B2, “Method for identifying Listeria monocytogenes and culture medium” (Biomerieux S.A., priority 2000, dated 2008)

How the values were obtained:
Type in all cases: cell-based
Conditions in all cases: 37° C., substrate 250 mg/l
Listeria welshimeri 078 = test: Experiment 1: esterase substrates, same chromogenic marker, fatty acids of different chain lengths; set-up: key: —: the symbol “-” corresponds to the absence of color or intensity; 0 corresponds to no activity; 0.1 corresponds to a trace of color; 0.5 corresponds to very pale coloration; 1 corresponds to clear but low-intensity coloration; 1.5 corresponds to a degree of coloration intermediate between scores 1 and 2; 2 corresponds to clear coloration of moderate intensity; 2.5 corresponds to a degree of coloration intermediate between scores 2 and 3; 3 corresponds to intense coloration; 3.5 corresponds to a degree of coloration intermediate between scores 3 and 4; 4 corresponds to very intense coloration
Procedure: (§1) A stock solution of each substrate at a concentration of 40 g/l was made up in a mixture of 40% Dimethylsulfoxide and 60% Polyoxyethylenesorbitan Monolaurate (Tween 20). An appropriate volume was added to three Columbia-type media while cooling to give a final substrate concentration of 250 mg/l. These dishes were divided into three areas and then each area was inoculated with a suspension (density=0.5 McFarland) of microorganisms taken from either the Applicant's own collection or the ATCC. The dishes were incubated for 48 hours at 37° C. The colonies which grew were examined by eye after 24 and 48 hours of incubation. Both the color and the intensity of the color of the colonies were recorded.
(§2) In Table 1 above, as in the following Tables, C represents the color of the colonies after incubation, I represents the intensity of the color, and the symbol “-” corresponds to the absence of color or intensity; finally, IT defines the incubation time. It should be noted that the intensity of the color is scored on an arbitrary scale but one which is consistent for all the biological specimens and media tested. This scale is valid for this experiment as well as all those that follow. It can be defined in the following way: • 0 corresponds to no activity, • 0.1 corresponds to a trace of color, • 0.5 corresponds to very pale coloration, • 1 corresponds to clear but low-intensity coloration, • 1.5 corresponds to a degree of coloration intermediate between scores 1 and 2, • 2 corresponds to clear coloration of moderate intensity, • 2.5 corresponds to a degree of coloration intermediate between scores 2 and 3, • 3 corresponds to intense coloration, • 3.5 corresponds to a degree of coloration intermediate between scores 3 and 4, • 4 corresponds to very intense coloration.

[1] = system: Listeria innocua ATCC 33090; test: as above; set-up: key: —: the symbol “-” corresponds to the absence of color or intensity; 0 corresponds to no activity; 0.1 corresponds to a trace of color; 0.5 corresponds to very pale coloration; 1 corresponds to clear but low-intensity coloration; 1.5 corresponds to a degree of coloration intermediate between scores 1 and 2; 2 corresponds to clear coloration of moderate intensity; 2.5 corresponds to a degree of coloration intermediate between scores 2 and 3; 3 corresponds to intense coloration; 3.5 corresponds to a degree of coloration intermediate between scores 3 and 4; 4 corresponds to very intense coloration
Procedure: as §1, §2

Listeria ivanovii 018 = test: as above; set-up: key: —: the symbol “-” corresponds to the absence of color or intensity; 0 corresponds to no activity; 0.1 corresponds to a trace of color; 0.5 corresponds to very pale coloration; 1 corresponds to clear but low-intensity coloration; 1.5 corresponds to a degree of coloration intermediate between scores 1 and 2; 2 corresponds to clear coloration of moderate intensity; 2.5 corresponds to a degree of coloration intermediate between scores 2 and 3; 3 corresponds to intense coloration; 3.5 corresponds to a degree of coloration intermediate between scores 3 and 4; 4 corresponds to very intense coloration
Procedure: as §1, §2

[2] = system: Listeria monocytogenes ATCC 19115; test: Experiment 2: octanoate esterase substrates with different Indoxyl-based chromogenic markers; set-up: key to I (intensity of the color): —: the symbol “-” corresponds to the absence of color or intensity; 0 corresponds to no activity; 0.1 corresponds to a trace of color; 0.5 corresponds to very pale coloration; 1 corresponds to clear but low-intensity coloration; 1.5 corresponds to a degree of coloration intermediate between scores 1 and 2; 2 corresponds to clear coloration of moderate intensity; 2.5 corresponds to a degree of coloration intermediate between scores 2 and 3; 3 corresponds to intense coloration; 3.5 corresponds to a degree of coloration intermediate between scores 3 and 4; 4 corresponds to very intense coloration
Procedure: as §2
as §1, with “and 60% Tween 20. An appropriate” for “and 60% Polyoxyethylenesorbitan Monolaurate (Tween 20). An appropriate”, “added to four Columbia-type media” for “added to three Columbia-type media”

[3] = system: Listeria monocytogenes 092; test: as above; set-up: key to I (intensity of the color): —: the symbol “-” corresponds to the absence of color or intensity; 0 corresponds to no activity; 0.1 corresponds to a trace of color; 0.5 corresponds to very pale coloration; 1 corresponds to clear but low-intensity coloration; 1.5 corresponds to a degree of coloration intermediate between scores 1 and 2; 2 corresponds to clear coloration of moderate intensity; 2.5 corresponds to a degree of coloration intermediate between scores 2 and 3; 3 corresponds to intense coloration; 3.5 corresponds to a degree of coloration intermediate between scores 3 and 4; 4 corresponds to very intense coloration
Procedure: as §2
as §1, with “and 60% Tween 20. An appropriate” for “and 60% Polyoxyethylenesorbitan Monolaurate (Tween 20). An appropriate”, “added to four Columbia-type media” for “added to three Columbia-type media”

[4] = system: Listeria monocytogenes ATCC 19117; test: as above; set-up: key to I (intensity of the color): —: the symbol “-” corresponds to the absence of color or intensity; 0 corresponds to no activity; 0.1 corresponds to a trace of color; 0.5 corresponds to very pale coloration; 1 corresponds to clear but low-intensity coloration; 1.5 corresponds to a degree of coloration intermediate between scores 1 and 2; 2 corresponds to clear coloration of moderate intensity; 2.5 corresponds to a degree of coloration intermediate between scores 2 and 3; 3 corresponds to intense coloration; 3.5 corresponds to a degree of coloration intermediate between scores 3 and 4; 4 corresponds to very intense coloration
Procedure: as §2
as §1, with “and 60% Tween 20. An appropriate” for “and 60% Polyoxyethylenesorbitan Monolaurate (Tween 20). An appropriate”, “added to four Columbia-type media” for “added to three Columbia-type media”

SMILES | C (color of the colonies) (Listeria welshimeri 078; IT 24 h) | C (color of the colonies) (Listeria welshimeri 078; IT 48 h) | C (color of the colonies) ([1]; IT 48 h) | C (color of the colonies) ([2]; IT 24 h) | C (color of the colonies) ([2]; IT 48 h) | C (color of the colonies) ([3]; IT 24 h) | C (color of the colonies) ([3]; IT 48 h) | C (color of the colonies) ([4]; IT 24 h) | C (color of the colonies) ([4]; IT 48 h) | I (intensity of the color) (Listeria welshimeri 078; IT 24 h) | I (intensity of the color) (Listeria welshimeri 078; IT 48 h) | C (color of the colonies) ([1]; IT 24 h) | I (intensity of the color) ([1]; IT 24 h) | I (intensity of the color) ([1]; IT 48 h) | I (intensity of the color) ([2]; IT 24 h) | I (intensity of the color) ([2]; IT 48 h) | I (intensity of the color) ([3]; IT 24 h) | I (intensity of the color) ([3]; IT 48 h) | I (intensity of the color) ([4]; IT 24 h) | I (intensity of the color) ([4]; IT 48 h) | other results
CCCCCCCC(=O)Oc1c[nH]c2ccc(Br)cc12 [Blue-C8, 5-Bromo-3-indolyl octanoate] | gray | gray | gray | gray | gray | gray | gray | gray | gray | 0.5 | 1 | gray | 0.3 | 0.5 | 1 | 2 | 1.5 | 2.5 | 1 | 2 | C (color of the colonies) (Listeria ivanovii 018; IT 24 h): —; I (intensity of the color) (Listeria ivanovii 018; IT 24 h): —; C (color of the colonies) (Listeria ivanovii 018; IT 48 h): —; I (intensity of the color) (Listeria ivanovii 018; IT 48 h): —
CCCCCCCCC(=O)Oc1c[nH]c2ccc(Br)cc12 [Blue-C9, 5-Bromo-3-indolyl nonanoate] | gray | gray | gray |  |  |  |  |  |  | 0.5 | 1 | — | — | 0.3 |  |  |  |  |  |  | C (color of the colonies) (Listeria ivanovii 018; IT 24 h): —; I (intensity of the color) (Listeria ivanovii 018; IT 24 h): —; C (color of the colonies) (Listeria ivanovii 018; IT 48 h): —; I (intensity of the color) (Listeria ivanovii 018; IT 48 h): —
CCCCCCCCCC(=O)Oc1c[nH]c2ccc(Br)cc12 [Blue-C10, 5-Bromo-3-indolyl decanoate] | — | gray | gray |  |  |  |  |  |  | — | 0.5 | — | — | 0.3 |  |  |  |  |  |  | C (color of the colonies) (Listeria ivanovii 018; IT 24 h): —; I (intensity of the color) (Listeria ivanovii 018; IT 24 h): —; C (color of the colonies) (Listeria ivanovii 018; IT 48 h): —; I (intensity of the color) (Listeria ivanovii 018; IT 48 h): —
CCCCCCCC(=O)Oc1c[nH]c2cc(Cl)c(Br)cc12 [Magenta-C8, 5-Bromo-6-chloro-3-indolyl octanoate] |  |  |  | purple | purple | purple | purple | purple | purple |  |  |  |  |  | 2 | 3 | 3 | 3 | 1.5 | 3.5 | 

The next lines start with results.

C (color of the colonies) (Listeria welshimeri 078; IT 24 h) | C (color of the colonies) (Listeria welshimeri 078; IT 48 h) | C (color of the colonies) ([1]; IT 48 h) | C (color of the colonies) ([2]; IT 24 h) | C (color of the colonies) ([2]; IT 48 h) | C (color of the colonies) ([3]; IT 24 h) | C (color of the colonies) ([3]; IT 48 h) | C (color of the colonies) ([4]; IT 24 h) | C (color of the colonies) ([4]; IT 48 h) | SMILES | I (intensity of the color) (Listeria welshimeri 078; IT 24 h) | I (intensity of the color) (Listeria welshimeri 078; IT 48 h) | C (color of the colonies) ([1]; IT 24 h) | I (intensity of the color) ([1]; IT 24 h) | I (intensity of the color) ([1]; IT 48 h) | I (intensity of the color) ([2]; IT 24 h) | I (intensity of the color) ([2]; IT 48 h) | I (intensity of the color) ([3]; IT 24 h) | I (intensity of the color) ([3]; IT 48 h) | I (intensity of the color) ([4]; IT 24 h) | I (intensity of the color) ([4]; IT 48 h) | other results
 |  |  | pink | pink | pink | pink | pink | pink | CCCCCCCC(=O)Oc1c[nH]c2cc(Cl)ccc12 [Pink-C8, 6-Chloro-3-indolyl octanoate] |  |  |  |  |  | 0.5 | 1 | 1.5 | 2 | 0.5 | 1 | 
 |  |  | turquoise | turquoise | turquoise | turquoise | turquoise | turquoise | CCCCCCCC(=O)Oc1c[nH]c2ccc(Br)c(Cl)c12 [X-C8, 5-Bromo-4-chloro-3-indolyl octanoate] |  |  |  |  |  | 2.5 | 3 | 3 | 3.5 | 2 | 3 | 
